Read-outs that look alike come from different tables or passages of the source.
Columns and labels:
cruzain = cruzain (Trypanosoma cruzi, UniProt P25779); assay: biochemical;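 as to Cruzain 0’ Inhibition: at 5 µM compound concentration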;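 as to Cruzain 10’ Inhibition: at 5 µM compound concentration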;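 as to Cruzain Inhibition 0’: at 5 µM compound concentration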;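 as to Cruzain Inhibition 10’: at 5 µM compound concentration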
Summary of the method: (§1)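 Recombinant enzymes assayed by Z-Phe-Arg-AMC cleavage at 25 °C, fluorescence 340/440 nm over 5–7 min, with 10 min or no enzyme–compound preincubation.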

TbrCatL = target: T1, TbrCatL (Trypanosoma brucei rhodesiense, UniProt Q95PM0); assay: TbrCatL enzymatic inhibition assay (cleavage of fluorogenic substrate Z-FR-AMC); type: biochemical; settings: for TbrCatL 0’ Inhibition / TbrCatL 10’ Inhibition: sheet "Screening results";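 as to TbrCatL 0’ Inhibition: at 5 µM compound concentration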;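 as to TbrCatL 10’ Inhibition: at 5 µM compound concentration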;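 as to TbrCatL Inhibition 0’: at 5 µM compound concentration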;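 as to TbrCatL Inhibition 10’: at 5 µM compound concentration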
T1 construct: Conor Caffrey (University of California San Diego)
Summary of the method: as §1

[1] = 0’ (no pre-incubation), sheet Screening results
[2] = 10’ (pre-incubation), sheet Screening results
[3] = 0’ (pre-incubation time), sheet "Screening results"
[4] = 10’ (pre-incubation time), sheet "Screening results"
[5] = 0’ (pre-incubation time), Pathogen Box screening results
[6] = 10’ (pre-incubation time), Pathogen Box screening results

T1 sequence (Q95PM0 entry or part of it): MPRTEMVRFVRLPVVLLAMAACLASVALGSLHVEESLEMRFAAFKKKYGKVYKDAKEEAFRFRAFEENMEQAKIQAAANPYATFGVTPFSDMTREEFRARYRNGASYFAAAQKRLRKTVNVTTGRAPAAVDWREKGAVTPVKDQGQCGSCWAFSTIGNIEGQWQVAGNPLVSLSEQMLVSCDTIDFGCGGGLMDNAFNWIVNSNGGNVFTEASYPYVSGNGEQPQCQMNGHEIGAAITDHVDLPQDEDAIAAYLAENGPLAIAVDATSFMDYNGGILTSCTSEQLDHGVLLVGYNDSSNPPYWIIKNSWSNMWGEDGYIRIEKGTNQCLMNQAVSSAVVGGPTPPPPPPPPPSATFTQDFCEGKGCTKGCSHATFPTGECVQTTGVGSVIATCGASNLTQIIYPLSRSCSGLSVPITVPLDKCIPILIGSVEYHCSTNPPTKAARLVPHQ
Sequence of cruzain (P25779 123-337 limits assumed): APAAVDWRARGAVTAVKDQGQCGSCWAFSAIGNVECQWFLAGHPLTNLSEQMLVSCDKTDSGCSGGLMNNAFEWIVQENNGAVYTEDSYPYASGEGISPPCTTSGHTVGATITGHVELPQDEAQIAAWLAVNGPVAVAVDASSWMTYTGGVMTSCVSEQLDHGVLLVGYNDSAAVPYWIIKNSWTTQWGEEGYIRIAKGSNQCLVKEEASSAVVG

SMILES | Cruzain Inhibition 0’ (cruzain; [1]) [%] | Cruzain Inhibition 10’ (cruzain; [2]) [%] | TbrCatL Inhibition 0’ (TbrCatL; [1]) [%] | TbrCatL Inhibition 10’ (TbrCatL; [2]) [%] | Cruzain 0’ Inhibition (cruzain; [3]) [%] | Cruzain 10’ Inhibition (cruzain; [4]) [%] | TbrCatL 0’ Inhibition (TbrCatL; 0’ (pre-incubation time)) [%] | TbrCatL 10’ Inhibition (TbrCatL; 10’ (pre-incubation time)) [%] | also measured
O=C(NCCN1CCCC1)c1cc(NCCCCN2CCC(F)(F)CC2)nc2ccc(Cl)cc12 [MMV667494] | – | – | – | – | – | – | – | – | inhibition at 5 µM (cruzain; read-out: Cruzain 0’ Inhibition, 0’ (pre-incubation time), sheet "Screening results"): 39%; inhibition at 5 µM (cruzain; read-out: Cruzain 10’ Inhibition, 10’ (pre-incubation time), sheet "Screening results"): 53%; inhibition at 5 µM (cruzain; read-out: Inhibition at 5 µM (Mean ± SEM %) Cruzain 0′, 5 µM, no pre-incubation, initial screening): 40 ± 1%; inhibition at 5 µM (cruzain; read-out: Inhibition at 5 µM (Mean ± SEM %) Cruzain 10′ inc, 5 µM, 10′ pre-incubation, initial screening): 53 ± 1%; inhibition at 100 µM (cruzain; read-out: Inhibition at 100 µM (Mean ± SEM %) Cruzain 0′, 100 µM, no pre-incubation, solid samples): 0%; inhibition at 100 µM (cruzain; read-out: Inhibition at 100 µM (Mean ± SEM %) Cruzain 10′ inc, 100 µM, 10′ pre-incubation, solid samples): 70 ± 3%; inhibition at 5 µM (cruzain; read-out: Inhibition of cruzain or TbrCatL (either enzyme) in the initial screening, 5 µM, either cruzain or TbrCatL, with or without pre-incubation): ≥ 60%; inhibition at 5 µM (TbrCatL; read-out: Inhibition at 5 µM (Mean ± SEM %) TbrCatL 0′): 31 ± 5%; inhibition at 5 µM (TbrCatL; read-out: Inhibition at 5 µM (Mean ± SEM %) TbrCatL 10′ inc): 73 ± 1%; inhibition at 100 µM (TbrCatL; read-out: Inhibition at 100 µM (Mean ± SEM %) TbrCatL 0′): 0%; inhibition at 100 µM (TbrCatL; read-out: Inhibition at 100 µM (Mean ± SEM %) TbrCatL 10′ inc): 11 ± 8%; inhibition at 5 µM (TbrCatL; read-out: TbrCatL 0’ Inhibition): 32%; inhibition at 5 µM (TbrCatL; read-out: TbrCatL 10’ Inhibition): 73%
Nc1ncc(-c2ccc(C(F)(F)F)nc2)cc1-c1ccc(C(F)(F)F)nc1 [MMV668727] | 11 | -3 | 6.6 | -4.6 | – | – | – | – | –
Cc1[nH]c2cc(F)cc(F)c2c(=O)c1-c1ccc(Oc2ccc(OC(F)(F)F)cc2)cc1 [MMV671636] | – | – | – | – | 8 | 17 | 10 | 6.6 | –
COc1ccc(OC)c(NCc2ccc3nc(N)nc(N)c3c2Cl)c1 [MMV675968] | – | – | – | – | 6.6 | 26 | 20 | 22 | –
CC(C)(C)c1ccc(N[C@@H]2CCCC[C@H]2NC(=O)c2ccco2)cc1 [MMV675969] | – | – | – | – | -8 | -5 | -4.6 | -6 | –
COc1ccc(-c2nn(C(C)C)c3ncnc(N)c23)cc1OC [MMV675993] | – | – | – | – | -7 | -1.8 | -7 | -5.6 | –
Clc1ccc(-n2cc(COc3ccnc4ccccc34)nn2)cc1 [MMV675994] | – | – | – | – | 5 | 14 | -1.8 | 11 | –
COc1ccc(N(CCc2cccc(C)n2)C(C)=O)cc1 [MMV675995] | – | – | – | – | 2.8 | 1.9 | -3 | 19 | –
COc1ccc(N(CCc2cccc(C)n2)C(=O)C2CCCCC2)cc1 [MMV675996] | – | – | – | – | -3 | -2.2 | -13 | -10 | –
N#CCN(CCCCN1CCN(c2ccc(F)cc2)CC1)C(=O)OCc1ccccc1 [MMV675997] | 1.2 | 3.2 | 1.6 | 5 | – | – | – | – | –
COc1ccc(C(=N)N)cc1-c1cn(-c2ccc(C(=N)N)cc2)nn1 [MMV675998] | – | – | – | – | 6 | 26 | 2 | 34 | –
O=C(Nc1c(O)cccc1-c1nc2c(C(=O)O)cccc2o1)c1cc(-c2ccccc2)on1 [MMV676008] | – | – | – | – | -3.3 | 8 | 2.6 | -3.7 | –
Clc1ccc(Cl)c(CO[C@H]2CCCC[C@@H]2n2ccnc2)c1 [MMV676048] | – | – | – | – | 2.8 | 5.7 | 0.8 | -3.8 | –
CS(=O)(=O)N1CCC(Cn2nc(Cc3cccc4ccccc34)c3c(N)ncnc32)CC1 [MMV676050] | – | – | – | – | 0.2 | 8 | 0.1 | 3 | –
COc1cc(NC(=O)Cc2nn(C)c(=O)c3ccccc23)ccc1Cl [MMV676053] | – | – | – | – | 0 | 1.7 | 1.2 | 1.5 | –
CC(C)(C)OC(=O)N1CCN(c2cc(-c3ccc(Oc4ccccc4)cc3)n[nH]2)CC1 [MMV676057] | – | – | – | – | -1.5 | -3.4 | -2.3 | -12 | –
CCCCc1ccc(NC(=O)Nc2ccc(O[C@H]3CCCC[C@@H]3N(C)c3ccccc3)c(F)c2)cc1 [MMV676063] | – | – | – | – | -13 | -3.3 | -17 | -15 | –
CC(=O)N(CCN(C(=O)c1ccc(F)cc1)c1ccccc1)c1ccccc1 [MMV676064] | – | – | – | – | -6 | 3 | -5 | -7 | –
Clc1cccc(CO[C@H]2CCc3ccccc3[C@@H]2n2ccnn2)c1 [MMV676159] | – | – | – | – | -3 | -1.8 | -13 | -6 | –
c1ccc(Oc2ccc(-c3cc(CN4CCOCC4)[nH]n3)cc2)cc1 [MMV676161] | – | – | – | – | -1.3 | 1.7 | -3 | -2.5 | –

SMILES | Cruzain Inhibition 0’ (cruzain; [1]) [%] | Cruzain Inhibition 10’ (cruzain; [2]) [%] | TbrCatL Inhibition 0’ (TbrCatL; [1]) [%] | TbrCatL Inhibition 10’ (TbrCatL; [2]) [%] | Cruzain 0’ Inhibition (cruzain; [3]) [%] | Cruzain 10’ Inhibition (cruzain; [4]) [%] | TbrCatL 0’ Inhibition (TbrCatL; 0’ (pre-incubation time)) [%] | TbrCatL 10’ Inhibition (TbrCatL; 10’ (pre-incubation time)) [%] | also measured
O=C(Nc1ccccc1-c1nc2c(C(=O)O)cccc2o1)c1ccccc1 [MMV676162] | – | – | – | – | 8 | 9 | 2.6 | 6 | –
Nc1ncnc2c1c(Cc1cccc3ccccc13)nn2CC1CCNCC1 [MMV676182] | – | – | – | – | -4.4 | 4.5 | 1.4 | 3.4 | –
COC(=O)c1cccc2oc(-c3cccc(OC)c3NC(=O)c3cc(-c4ccccc4)on3)nc12 [MMV676186] | – | – | – | – | -3.5 | 5.3 | -3.7 | -5 | –
CC(C)C(Oc1cccc2ccccc12)C(=O)O (stereo not drawn) [MMV676191] | – | – | – | – | 2.8 | 1.5 | -3 | 2 | –
O=C(c1ccc(F)cc1)N(CCNc1ccccc1)c1ccccc1 [MMV676204] | 6 | 4.7 | 2.6 | -1.3 | – | – | – | – | –
CN1CCN(c2nccc3nc(-c4ccc(F)c(F)c4)[nH]c23)CC1 [MMV676260] | – | – | – | – | -9 | 1.2 | 0.7 | 5 | –
C[C@H](C(N)=O)N1CCCC[C@H]1c1ccc(OCc2cccc(F)c2)cc1 [MMV676269] | – | – | – | – | 0.4 | 2 | -3 | -4.7 | –
C[C@H](C(N)=O)N1CCCC[C@@H]1c1ccc(OCc2cccc(F)c2)cc1 [MMV676270] | – | – | – | – | – | – | – | – | Cruzain Inhibition 0’ (cruzain; [5]): 4.6%; Cruzain Inhibition 10’ (cruzain; [6]): 9%; TbrCatL Inhibition 0’ (TbrCatL; [5]): 3.2%; TbrCatL Inhibition 10’ (TbrCatL; [6]): -0.6%
Cc1c[nH]c(CCNC(=O)c2cc(-c3ccc(Cl)cc3)cs2)n1 [MMV676350] | 17 | 22 | 28 | 28 | – | – | – | – | –
Nc1ncc(Br)cc1-c1nc2cc(Cl)cnc2[nH]1 [MMV676358] | – | – | – | – | -2.8 | 8 | -9 | -2.5 | –
Brc1c(-c2ccc3c(c2)OCO3)nc2ncccn12 [MMV676377] | 1.2 | -0.9 | 5 | -1.8 | – | – | – | – | –
COc1cccc(OCC(=O)c2ccc(Br)cc2)c1 [MMV676379] | 8 | 14 | 9 | 20 | – | – | – | – | –
CC(=O)Nc1ccc(NC(=O)c2cc(-c3cc(Cl)ccc3O)n[nH]2)cc1 [MMV676380] | 0.6 | -0.9 | -5 | -3 | – | – | – | – | –
Cn1ncc2c(N3CCOCC3)nc(NCCc3c[nH]c4ccccc34)nc21 [MMV676382] | 17 | 15 | 4.7 | 7.5 | – | – | – | – | –
CCC(Sc1nc2ccccc2o1)C(=O)Nc1nccs1 (stereo not drawn) [MMV676383] | 3.5 | 4 | 10 | 7.5 | – | – | – | – | –
N#Cc1nc(-c2ccccc2F)oc1NCCc1ccccc1 [MMV676384] | – | – | – | – | 7 | 6 | 3.4 | 7 | –
Cc1cccc(Cn2ccc(NC(=O)c3ccc4c(c3)OCO4)n2)c1 [MMV676386] | 8 | 2.6 | 2.8 | 1.8 | – | – | – | – | –
COc1cccc(-n2nnnc2S(=O)(=O)Cc2ccccc2)c1 [MMV676388] | 15 | 12 | 18 | 15 | – | – | – | – | –
O=C(c1n[nH]c2c1CCCC2)N1CCN(Cc2ccc3c(c2)OCO3)CC1 [MMV676389] | -6 | -3.4 | -12 | -7 | – | – | – | – | –
